Measured values reported in ChEMBL document CHEMBL1201862, “PubChem BioAssay data set” (2004).
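Compound exposure: 48 hours, 5 concentrations, 96-well plates. Abbreviation: GI50, concentration required for 50% inhibition of growth.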 Activity calls are given as the source filed them. Cut-off read from the data, not from the text of the source: active = GI50 up to about 1.1 µM and inactive = higher.

Experiments:
Assay in all cases: NCI-60 cell line screen, 48 h
786-0 = system: 786-0
A498 = system: A498
A549 = system: A549
ACHN = system: ACHN
BT-549 = system: BT-549
CAKI-1 = system: CAKI-1
CCRF-CEM = system: CCRF-CEM
COLO 205 = system: COLO 205
DU-145 = system: DU-145
EKVX = system: EKVX
HCC 2998 = system: HCC 2998
HCT-116 = system: HCT-116
HCT-15 = system: HCT-15
HL-60 = system: HL-60
HOP-62 = system: HOP-62
HOP-92 = system: HOP-92
HT-29 = system: HT-29
Hs-578T = system: Hs-578T
IGROV-1 = system: IGROV-1
K562 = system: K562
KM12 = system: KM12
LOX IMVI = system: LOX IMVI
M14 = system: M14
MCF7 = system: MCF7
MDA-MB-231 = system: MDA-MB-231
MDA-MB-435 = system: MDA-MB-435
MDA-N = system: MDA-N
MOLT-4 = system: MOLT-4
Malme-3M = system: Malme-3M
NCI-H226 = system: NCI-H226
NCI-H23 = system: NCI-H23
NCI-H460 = system: NCI-H460
NCI-H522 = system: NCI-H522
NCI/ADR-RES = system: NCI/ADR-RES
OVCAR-3 = system: OVCAR-3
OVCAR-4 = system: OVCAR-4
OVCAR-5 = system: OVCAR-5
OVCAR-8 = system: OVCAR-8
PC-3 = system: PC-3
RPMI-8226 = system: RPMI-8226
RXF 393 = system: RXF 393
SF-268 = system: SF-268
SF-295 = system: SF-295
SF-539 = system: SF-539
SK-MEL-28 = system: SK-MEL-28
SK-MEL-2 = system: SK-MEL-2
SK-MEL-5 = system: SK-MEL-5
SK-OV-3 = system: SK-OV-3
SN12C = system: SN12C
SNB-19 = system: SNB-19
SNB-75 = system: SNB-75
SR = system: SR
SW-620 = system: SW-620
T47D = system: T47D
TK-10 = system: TK-10
U-251 = system: U-251
UACC-257 = system: UACC-257
UACC-62 = system: UACC-62
UO-31 = system: UO-31

Measured: GI50

CCN(CC)c1ccc2cc(C(=O)NCc3ccccc3)c(=N)oc2c1
9.27 µM: HCT-15
active: NCI/ADR-RES 0.912 µM
inactive: 786-0 > 62.1 µM | A498 > 100 µM | A549 42.1 µM | ACHN 5.43 µM | BT-549 23.5 µM | CAKI-1 > 44.8 µM | CCRF-CEM 13.3 µM | COLO 205 16 µM | DU-145 35 µM | EKVX 13.7 µM | HCC 2998 40.4 µM | HCT-116 39 µM | HL-60 39.1 µM | HOP-62 59.8 µM | HOP-92 22.1 µM | HT-29 9.02 µM | Hs-578T > 37.6 µM | IGROV-1 43.7 µM | K562 3.86 µM | KM12 8.93 µM | LOX IMVI 4.7 µM | M14 11.1 µM | MCF7 36.4 µM | MDA-MB-231 > 46.3 µM | MDA-MB-435 6.7 µM | MDA-N 70.5 µM | MOLT-4 24.9 µM | Malme-3M 15.2 µM | NCI-H226 > 89.5 µM | NCI-H23 31.1 µM | NCI-H460 28.2 µM | NCI-H522 9.59 µM | OVCAR-3 15.6 µM | OVCAR-4 16.9 µM | OVCAR-5 > 100 µM | OVCAR-8 37.7 µM | PC-3 19.3 µM | RPMI-8226 6.95 µM | RXF 393 47.5 µM | SF-268 > 79.6 µM | SF-295 27.5 µM | SF-539 46.3 µM | SK-MEL-28 66.2 µM | SK-MEL-2 21.4 µM | SK-MEL-5 27.6 µM | SK-OV-3 56.8 µM | SN12C > 100 µM | SNB-19 54.3 µM | SNB-75 37.3 µM | SR > 42.6 µM | SW-620 6.01 µM | T47D 4.33 µM | TK-10 14.4 µM | U-251 27.7 µM | UACC-257 20.4 µM | UACC-62 14.3 µM | UO-31 > 26.6 µM
